From US20250034212A1, “PEPTIDE” (PEPTIDREAM INC., priority 2021, published 2025)
Starred links: 1 amine or outer side, 2 acyl side, 3 side chain; linkers in the order of their positions; H or OH if unused. Positions of bridges follow the written chain, without caps; N, C: chain ends. Non-standard residues stand in square brackets, D forms with d. Residues, ends and D or L forms follow the SMILES beside them. Groups on a side chain read outwards from the residue. *: point of attachment. CH3O(CH2CH2O)7C2H4CO = COCCOCCOCCOCCOCCOCCOCCOCCC(=O)*; Meglumine = CN(C[C@H](O)[C@@H](O)[C@H](O)[C@H](O)CO)*; Piperazinyl(4-CH2COOH) = O=C(O)CN1CCN(*)CC1; 1Nal = N[C@@H](Cc1cccc2ccccc12)C(=O)O; Gly(NCH2CH2Ph) = O=C(O)CNCCc1ccccc1; 4Pal = N[C@@H](Cc1ccncc1)C(=O)O; CO = O=C([*:1])[*:2]

Tests used:
recombinant human TGF-β1 [1] = target: T1, recombinant human TGF-β1 (Homo sapiens, UniProt P01137); test: SPR intermolecular interaction test, TGF-β1 immobilized on CM3 sensor chip (Biacore T200); format: binding; settings: Single Cycle Kinetics, human TGF-β1
T1 construct: purchased R&D systems
Protocol: In this Example, (1) the activity of binding to TGF-β for various peptides consisting of the amino acid sequences set forth in SEQ ID NOs: 2-33 synthesized in Examples 1 to 5 and 7 was evaluated. (2) The activity and selectivity of binding of the peptide consisting of the amino acid sequence set forth in SEQ ID NO: 13 synthesized in Example 2 against two isoforms of TGF-β (TGF-β1 and β2) were checked. For this purpose, the intermolecular interaction of each peptide against TGF-β was tested by surface plasmon resonance (SPR) in the method described below. Specific test methods are described below.
A CM3 sensor chip (Global Life Science Technologies Japan Co., Ltd.) was inserted into a BiacoreT200 (Global Life Science Technologies Japan Co., Ltd.). Three priming runs were performed using running buffer: HBS-EP+ (Global Life Science Technologies Japan Co., Ltd.). The system was then equilibrated at a flow rate of 30 μL/min.
Subsequently, 50 μL of 60 mM EDC solution (Global Life Science Technologies Japan Co., Ltd.) and 50 μL of 650 mM NHS solution (Global Life Science Technologies Japan Co., Ltd.) were mixed. Next, the reaction was carried out at a flow rate of 10 μL/min for 420 seconds. Then, 150 μL of 0.2 μM TGF-β solution diluted in 10 mM acetic acid solution (pH 5.0) was prepared and reacted at a flow rate of 10 μL/min for 420 seconds to immobilize TGF-β on the CM3 sensor chip. TGF-β was human-derived TGF-β1 or β2 (recombinant human TGF-β1, 2) and was obtained from R&D systems. After immobilization, capping was performed by reacting with 1.0 M ethanolamine aqueous solution (Global Life Science Technologies Japan Co., Ltd.) at a flow rate of […] for 420 seconds.
A liquid prepared by dissolving each peptide at 10 mM in DMSO solution was diluted with running buffer to prepare a peptide-dissolved solution at a final concentration of 10 μM. Subsequently, 50 nM, 25 nM, 12.5 nM, 5 nM, and 2.5 nM peptide solutions were prepared. Using the above samples, the kinetics of each peptide against TGF-β was obtained by SPR measurement.
The kinetics evaluation model was Single Cycle Kinetics, and curve fitting was performed using Biacore T200 Evaluation Software Version 3.0 (Global Life Science Technologies Japan Co., Ltd.). The binding of various peptides to TGF-β was evaluated by performing least-squares curve fitting on the obtained sensorgram to calculate the KD value.

recombinant human TGF-β1 [2] = target: T1, recombinant human TGF-β1; test: SBE reporter assay in SBE reporter-HEK293 cells, TGF-β1 stimulation; format: cell-based; settings: TGF-β1 0.13 nM, 18 hours; for inhibition at 62 pM: peptide 0.062 nM; for inhibition at 0.000185 µM: peptide 0.185 nM; for inhibition at 0.00056 µM: peptide 0.56 nM; for inhibition at 0.0017 µM: peptide 1.7 nM; for inhibition at 0.005 µM: peptide 5.0 nM; for inhibition at 0.015 µM: peptide 15.0 nM
Method in brief: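 SBE luciferase reporter HEK293 cells in 0.5% FBS medium, preincubated 20 min with peptide, then stimulated 18 h with 0.13 nM recombinant human TGF-β1. Luminescence read; inhibition scaled with maximal TGF-β signal as 0% and unstimulated as 100%.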

T1 sequence (P01137 279-390 limits assumed): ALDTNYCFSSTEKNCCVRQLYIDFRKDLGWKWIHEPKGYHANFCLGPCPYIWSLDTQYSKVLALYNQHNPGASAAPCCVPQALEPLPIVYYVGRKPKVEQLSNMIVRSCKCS

Row | Kd (recombinant human TGF-β1 [1]) | inhibition at 62 pM (recombinant human TGF-β1 [2]) | inhibition at 0.000185 µM (recombinant human TGF-β1 [2]) | inhibition at 0.00056 µM (recombinant human TGF-β1 [2]) | inhibition at 0.0017 µM (recombinant human TGF-β1 [2]) | inhibition at 0.005 µM (recombinant human TGF-β1 [2]) | inhibition at 0.015 µM (recombinant human TGF-β1 [2]) | SMILES
1 | 0.91 nM | 9.29% | 20.1% | 51.9% | 84.9% | 96.7% | 99.1% | COCCOCCOCCOCCOCCOCCOCCOCCC(=O)NCCCC[C@H](NC(=O)CNC(=O)[C@@H]1CSCC(=O)N[C@@H](Cc2ccccc2)C(=O)N[C@@H](Cc2cccc3ccccc23)C(=O)N[C@@H](C(C)C)C(=O)N[C@@H](C(C)C)C(=O)N[C@@H](CC(N)=O)C(=O)N[C@@H](C(C)C)C(=O)N[C@@H](Cc2ccncc2)C(=O)N[C@@H](CC(=O)O)C(=O)N[C@@H](CC(=O)O)C(=O)N(CCc2ccccc2)CC(=O)N[C@@H](C(C)C)C(=O)N[C@@H](Cc2cccc3ccccc23)C(=O)N[C@@H](Cc2ccc(O)cc2)C(=O)N[C@@H](Cc2c[nH]cn2)C(=O)N[C@@H](CCCCNC(=O)N2CCN(CC(=O)O)CC2)C(=O)N1)C(N)=O [TGFb1_031] ({CH2CO}-F[1Nal]VVNV[4Pal]DD[Gly(NCH2CH2Ph)]V[1Nal]YHK([CO-Piperazinyl(4-CH2COOH)])CGK(CH3O(CH2CH2O)7C2H4CO)-NH2; thioether N-16)
2 | 1.03 nM | 6.85% | 17.8% | 41.4% | 74.3% | 93.4% | 98% | CC(C)[C@@H]1NC(=O)CN(CCc2ccccc2)C(=O)[C@H](CCCCNC(=O)N(C)C[C@H](O)[C@@H](O)[C@H](O)[C@H](O)CO)NC(=O)[C@H](CC(=O)O)NC(=O)[C@H](Cc2ccncc2)NC(=O)[C@H](C(C)C)NC(=O)[C@H](CC(N)=O)NC(=O)[C@H](CCCCNC(=O)N(C)C[C@H](O)[C@@H](O)[C@H](O)[C@H](O)CO)NC(=O)[C@H](C(C)C)NC(=O)[C@H](Cc2cccc3ccccc23)NC(=O)[C@H](Cc2ccccc2)NC(=O)CSC[C@@H](C(=O)NCC(N)=O)NC(=O)[C@H](CCCCNC(=O)N2CCN(CC(=O)O)CC2)NC(=O)[C@H](Cc2c[nH]cn2)NC(=O)[C@H](Cc2ccc(O)cc2)NC(=O)[C@H](Cc2cccc3ccccc23)NC1=O [TGFb1_026] ({CH2CO}-F[1Nal]VK([CO-Meglumine])NV[4Pal]DK([CO-Meglumine])[Gly(NCH2CH2Ph)]V[1Nal]YHK([CO-Piperazinyl(4-CH2COOH)])CG-NH2; thioether N-16)
3 | 0.83 nM | 4.81% | 18.4% | 43.3% | 77.5% | 94.7% | 99.4% | CC(C)[C@@H]1NC(=O)CN(CCc2ccccc2)C(=O)[C@H](CCCCNC(=O)N2CCN(CC(=O)O)CC2)NC(=O)[C@H](CC(=O)O)NC(=O)[C@H](Cc2ccncc2)NC(=O)[C@H](C(C)C)NC(=O)[C@H](CC(N)=O)NC(=O)[C@H](CCCCNC(=O)N(C)C[C@H](O)[C@@H](O)[C@H](O)[C@H](O)CO)NC(=O)[C@H](C(C)C)NC(=O)[C@H](Cc2cccc3ccccc23)NC(=O)[C@H](Cc2ccccc2)NC(=O)CSC[C@@H](C(=O)NCC(N)=O)NC(=O)[C@H](CCCCNC(=O)N2CCN(CC(=O)O)CC2)NC(=O)[C@H](Cc2c[nH]cn2)NC(=O)[C@H](Cc2ccc(O)cc2)NC(=O)[C@H](Cc2cccc3ccccc23)NC1=O [TGFb1_025] ({CH2CO}-F[1Nal]VK([CO-Meglumine])NV[4Pal]DK([CO-Piperazinyl(4-CH2COOH)])[Gly(NCH2CH2Ph)]V[1Nal]YHK([CO-Piperazinyl(4-CH2COOH)])CG-NH2; thioether N-16)
